Reference: the RepoRT retention time repository (doi:10.1021/acs.analchem.2c02893)

Assay: RP, Thermo Scientific Acclaim RSLC 120 C18, 100 × 2.1 mm, 2.2 µm, 30 °C, 0.2 mL/min, estimated dead time 1.1 min; A: 90% water + 10% methanol + 0.01% formic acid + 5 mM ammonium formate, pH 3.61; B: methanol + 0.01% formic acid + 5 mM ammonium formate, pH 3.61; gradient (min/%B) 0/1 1/1 2/39 13/99.9 15/99.9 15.1/1 20.1/1
Details: stereoisomer not certain

Structure (SMILES) | LC retention time
COc1cc(C(=O)c2cnc(N)nc2N)cc(OC)c1OC [Trimethoprim (Impurity B)] | 5.49 min
NNC(=O)c1ccncc1 [Isoniazide] | 2.18 min
CN(C)S(N)(=O)=O [N,N-Dimethylsulfamide] | 2.02 min
CCCCCCCCCCN(C)C [N,N-Dimethyldecylamine] | 8.59 min
CCN1CCCC1CNC(=O)c1cc(S(=O)(=O)CC)c(N)cc1OC (stereo unspecified) [Amisulpride] | 3.88 min
CN(C)CCc1c[nH]c2ccccc12 [DMT (Dimethyltryptamine)] | 3.94 min
CCCCn1cc(C(=O)c2cccc3ccccc23)c2ccccc21 [JWH-073] | 11.9 min
Clc1ccc2c(c1)C(c1ccccc1)=NCc1nncn1-2 [Estazolam] | 8.14 min
CCCCCn1cc(C(=O)c2cccc3ccccc23)c2cccc(O)c21 [JWH-018-M-7-OH-Ind] | 11.8 min
CCN(CC)CCc1c[nH]c2ccccc12 [DET] | 4.34 min
c1ccc2c(c1)CCCC2C1=NCCN1 (stereo unspecified) [Tetryzoline] | 4.47 min
c1ccc(Nc2ccccc2)cc1 [Diphenylamine] | 10.1 min
Cc1ccc(N(CC2=NCCN2)c2cccc(O)c2)cc1 [Phentolamine] | 5.86 min
CCCc1nn(C)c2c(=O)[nH]c(-c3cc(C(=O)CN4CCN(CCO)CC4)ccc3OCC)nc12 [Acetildenafil-Hydroxy] | 6.94 min
CCC(Oc1ccc(F)c(C(F)(F)F)c1)C(=O)NCc1ccccc1 (stereo unspecified) [Beflubutamide] | 10.6 min
NC(=O)c1cc[n+](CC2=C(C(=O)[O-])N3C(=O)C(NC(=O)Cc4cccs4)C3SC2)cc1 (stereo unspecified) [Cefalonium] | 4.03 min
COc1ccc2c(c1)[nH]c1c(C)nccc12 [Harmine] | 5.34 min
CN1CCN(C2=Nc3ccccc3Sc3ccc(Cl)cc32)CC1 [Clothiapine] | 8.96 min

Structure (SMILES) | LC retention time
CCCCCn1cc(C(=O)C23CC4CC(CC(C4)C2)C3)c2ccccc21 [JWH-018-Adamantoyl. AB-001] | 13.7 min
CCC(C(=O)c1ccc2c(c1)OCO2)N1CCCC1 (stereo unspecified) [MDPBP] | 4.49 min
CC(C)Oc1cc(-n2nc(C(C)(C)C)oc2=O)c(Cl)cc1Cl [Oxadiazon] | 12.3 min
C=C(c1ccccc1OCc1cccc(Cl)c1)n1ccnc1 [Croconazole] | 10.7 min
Nc1ccc([N+](=O)[O-])cc1C(=O)c1ccccc1 [Benzophenone -2-Amino-5-nitro] | 8.99 min
Clc1nc(Cl)nc(Nc2ccccc2Cl)n1 [Anilazine (Dyrene)] | 9.74 min
O=C(Nc1ccccc1)N(Cc1ccc(Cl)cc1)C1CCCC1 [Pencycuron] | 11.4 min
O=S1OCC2C(CO1)C1(Cl)C(Cl)=C(Cl)C2(Cl)C1(Cl)Cl (stereo unspecified) [Endosulfan] | 11.2 min
CCCC(C)(COC(N)=O)COC(N)=O [Meprobamate] | 5.94 min
CCc1c(C(=O)NCCc2ccc(N3CCCCC3)cc2)[nH]c2ccc(Cl)cc12 | 12.7 min
CCc1cc(OC)c(CCN)cc1OC [2C-E] | 6.48 min
Cc1ccc(C(=CCN2CCCC2)c2ccccn2)cc1 [Triprolidine] | 6.28 min
CNCC(C)CN1c2ccccc2Sc2ccc(OC)cc21 (stereo unspecified) [Levomepromazine-Nor] | 8.33 min
CN(C)S(=O)(=O)Nc1ccccc1 [DMSA (N N-Dimethylaminosulfanilide)] | 6.28 min
Cc1nnc2n1-c1sc(Br)cc1C(c1ccccc1Cl)=NC2 [Brotizolam] | 8.28 min
COc1cc2c(cc1OC)C(=O)C(CC1CCN(Cc3ccccc3)CC1)C2 (stereo unspecified) [Donepezil] | 5.81 min
CCc1cccc(C)c1N(C(=O)C(=O)O)C(C)C(=O)O (stereo unspecified) | 6.84 min
CCCCCn1nc(C(=O)c2cccc3ccccc23)c2ccccc21 [THJ-018] | 13.1 min
